The record followed here is publication PMC12501029, “Discovery of a CNS active GSK3 degrader using orthogonally reactive linker screening” (Nature Communications, 2025).

Series [1] is described as follows: Intrinsic clearance (Cli), human liver microsomes. As to conditions: 0.5 µM, scaling factor 40 mg microsomal protein per g liver. It counts as in vitro ADME. How it is done:
(§1) Test compound (0.5 µM) was incubated with female CD1 mouse, male rat Han Wistar and pooled human liver microsomes (Xenotech^TM; 0.5 mg/mL 50 mM potassium phosphate buffer, pH7.4) and the reaction started with addition of excess NADPH (8 mg/mL 50 mM potassium phosphate buffer, pH7.4). Immediately, at time zero, then at 3, 6, 9, 15 and 30 min an aliquot (50 µL) of the incubation mixture was removed and mixed with acetonitrile (100 uL) to stop the reaction. An internal standard was added to all samples, the samples centrifuged to sediment precipitated protein and the plates then sealed prior to UPLC-MSMS analysis (Xevo TQ-S Micro, Waters^TM). XLfit (IDBS, UK) was used to calculate the exponential decay and consequently the rate constant (k) from the ratio of peak area of test compound to internal standard at each timepoint. The rate of intrinsic clearance (CLi) of each test compound was then calculated using the following calculation:1 CLi(mL/min/gliver)=kxVxMicrosomalproteinyield Where V (mL/mg protein) is the incubation volume/mg protein added and microsomal protein yield is taken as 48 mg, 46 mg and 40 mg protein/g liver for mouse, rat and human, respectively. Verapamil (0.5 µM) was used as a positive control to confirm acceptable assay performance.
(Liver microsomes are a subcellular fraction often used to study metabolism.)

Series [2] can be described thus: Intrinsic clearance (Cli), rat liver microsomes. Conditions: 0.5 µM, scaling factor 46 mg microsomal protein per g liver. It counts as in vitro ADME. The protocol:
as §1

A short description of series [3]: RealSOL kinetic solubility. It counts as physicochemical. As to conditions: PBS pH 7.4, 24 h, 25 °C; for solubility kinetic at 24 h: phosphate buffered saline, aqueous buffer, kinetic from dmso stock. How it is done: Solubility was assessed using an 'in-house' developed method known as 'RealSOL'. This solubility method measures the solubility in physiological strength phosphate buffered saline starting from 10 mM DMSO solutions of the test compounds. Although a 'kinetic'^[1] solubility method, the long shaking times appears to give solubility values that reflect more closely those made from solid samples when compared to a previous nephelometric method (unpublished in-house data).
Test compounds were dissolved in DMSO to give 10 mM solutions. Solubility test samples were prepared by adding a volume (5 µL) of the 10 mM solution to a volume (195 µL) of phosphate buffered saline, pH 7.4 (Sigma-Aldrich, Cat no. P4417, made as per manufacturer’s instructions). This solution was then mixed for 24 h (rotary mixing, 900 rpm, 25 °C) excluding light.
After mixing, the solubility test samples were filtered to remove any undissolved material using a proprietary filter (Millipore Multiscreen HTS filter, 96-well format). Samples were drawn through the filter using a vacuum.
The filtrate from the above was analysed for dissolved drug compound using a truncated UHPLC methodology. A Shimadzu Nexera X2 UHPLC system was used, with a reversed-phase column and a simple formic acid gradient elution. The UHPLC parameters are shown in Supporting Information Table 5.
A calibration solution was prepared in the following way: the same 10 mM solution used to prepare the solubility test sample was diluted in DMSO to give a 500 µM solution. This solution was then again diluted with 50:50 acetonitrile: water to give a 50 µM solution. Aliquots (0.2, 2.0 and 5.0 µL) of this 50 µM solution were then injected onto the UHPLC system and the areas of the resultant peaks integrated to produce a calibration line. Aliquots of the test sample filtrate (0.4 and 5.0 µL) were then injected onto the UHPLC system and the resultant peak areas for any peaks corresponding to the test compound determined and quantified using the calibration line (the injection volume that gave a peak area closest to the calibrated range was used for determining solubility).

The nature of series [4]: Brain binding, equilibrium dialysis. It is filed as in vitro ADME. As to conditions: brain tissue homogenate. The protocol: As for plasma protein binding experiments, 96-well equilibrium dialysis apparatus was used to determine the free fraction in brain tissue homogenate for each compound (HT Dialysis LLC, Gales Ferry, CT). Membranes (12–14 kDA cut-off) were conditioned in deionised water for 60 min, followed by conditioning in 80:20 deionised water: ethanol for 20 min, and then rinsed in isotonic buffer before use. Frozen brain tissue was thawed and homogenised in artificial CSF at a ratio of 3:1. Homogenate was then spiked with test compound (final concentration 10 μg/mL), and 150 μL aliquots (n = 6 replicate determinations) loaded into the 96-well equilibrium dialysis plate. Dialysis vs artificial CSF was carried out for 5 h in a temperature-controlled incubator at ca. 37 °C (Barworld Scientific Ltd, UK) using an orbital microplate shaker at 100 revolutions/minute (Barworld Scientific Ltd, UK). 150 μL aliquots of spiked homogenate were stored at 37 °C and 4 °C for the course of the experiment to determine recovery. At the end of the incubation period, 50 μL aliquots of homogenate or buffer were transferred to a 96 deepwell plate (Waters^TM) and the composition in each was balanced with control fluid (50 μL), such that the volume of buffer to brain homogenate is the same. Sample extraction was performed by the addition of 200 μL of acetonitrile containing an appropriate internal standard. Samples were allowed to mix for 1 min and then centrifuged at 3000 rpm in 96-well blocks for 15 min (Allegra X12-R, Beckman Coulter, USA), after which 150 μL of supernatant was removed to 50 μL of water. All samples were analysed by UPLC-MS/MS. The unbound fraction was determined as the ratio of the peak area in buffer to that in homogenate using the following equation:2 Afu=Buffer/Matrix where Afu means apparent fraction unbound
Buffer = Analyte/IS ratio in buffer side […]
The recovery of the dialysed samples was calculated by comparing the sum of the peak areas (buffer and matrix) of any test compound at 37 °C to that of the same compound at 4 °C. […]
Background: Equilibrium dialysis compares concentrations on both sides of a semipermeable membrane.

The nature of series [5]: Intrinsic clearance (Cli), mouse liver microsomes. It is filed as in vitro ADME. Conditions: 0.5 µM, scaling factor 48 mg microsomal protein per g liver. The protocol:
as §1

Where [6] appears, read: 10 μg/mL, 5 h dialysis, read-out: Brain Tissue Binding (Fu).

≈ marks a conversion by molar mass, not a printed value. Like-named read-outs stand apart in the source and are kept apart here.

For the compound `Cn1nc(N2CCC(=O)NC2=O)c2ccc(CN3CCN(CCCc4cn(-c5ccc(-c6cn7nccc(C(=O)Nc8cnccc8N8CCOCC8)c7n6)cc5)nn4)CC3)cc21` [compound 26], the “Scaled Microsomal Stability HuClint” value in series [1] is given as 1.6 ml/min/g liver. The “Scaled Microsomal Stability RatClint” value in series [2] turned out to be 1.3 ml/min/g liver. Besides, in series [3], the RealSol entry is “low micromolar range” and the solubility (kinetic) – broadly, the concentration staying in solution when a stock, usually in DMSO, is diluted into the medium – at 24 h was 2.3 µM (≈ 1.95 µg/mL). The fraction unbound at 5 h, 10 μg/mL in series [4] (setting [6]) is 0.012. The “Scaled Microsomal Stability MuClint” value in series [5] is recorded as 4.0 ml/min/g liver.
In the case of `Cn1nc(N2CCC(=O)NC2=O)c2ccc(CN3CCN(Cc4ccc(-c5cn(-c6ccc(-c7cn8nccc(C(=O)Nc9cnccc9N9CCOCC9)c8n7)cc6)nn5)nc4)CC3)cc21` [compound 24], the “Scaled Microsomal Stability HuClint” value in series [1] is on record as 0.88 ml/min/g liver. Further, in series [2], the “Scaled Microsomal Stability RatClint” value is recorded as 0.51 ml/min/g liver. For the same compound, in series [3], the RealSol result is “low micromolar range” and the solubility (kinetic) at 24 h worked out at 2.7 µM (≈ 2.43 µg/mL). Also, the fraction unbound at 5 h, 10 μg/mL in series [4] (brain binding, read-out: measured free fraction in brain) came out at 0.0012. For the same compound, the “Scaled Microsomal Stability MuClint” value in series [5] is on record as 2.4 ml/min/g liver.
As for `O=C1CCC(NC(=O)c2ccc(CN3CCN(Cc4ccc(-c5cn(-c6ccc(-c7cn8nccc(C(=O)Nc9cnccc9N9CCOCC9)c8n7)cc6)nn5)nc4)CC3)cn2)C(=O)N1` (centres unmarked) [compound 22], in series [1], the “Scaled Microsomal Stability HuClint” value is reported as 3.6 ml/min/g liver. The “Scaled Microsomal Stability RatClint” value in series [2] is reported as 0.71 ml/min/g liver. Besides, in series [3], the kinetic solubility at 24 h was under 1 µM. Also, the fraction unbound at 5 h, 10 μg/mL in series [4] (setting [6]) was 0.0029. Also, the “Scaled Microsomal Stability MuClint” value in series [5] is under 0.53 ml/min/g liver.
